Values after ≈ are worked out from the molar mass of the structure shown. Read-outs that look alike come from different tables or passages of the source.
Key:
[1] = test system: S. aureus ATCC 6538P; test: Antibacterial activity: MIC/MBC determination and disc-diffusion; assay type: cell-based, Staphylococcus aureus; settings: for diameter of inhibition zone: disc-diffusion, — = zone not observed; for MIC / MBC: Staphylococcus aureus, ATCC6538P
Summary of the method: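 Antimicrobial susceptibility was assessed by agar disc diffusion and MIC assays per EUCAST and CLSI standards. Minimum bactericidal and fungicidal concentrations were established according to CLSI.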

[2] = test system: E. coli ATCC 25922; test: Antibacterial activity: MIC/MBC, MIC with PAβN, disc-diffusion; assay type: cell-based, Escherichia coli; settings: for MIC: Escherichia coli, ATCC25922; for -fold reduction of MIC in the presence of PAβN: PAβN 20 μg mL^−1, MHB + 1 mM MgSO4
Summary of the method: (§1)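 Read-outs are disc-diffusion zones, broth-microdilution MICs and bactericidal concentrations (MBC), following EUCAST and CLSI guidance. The efflux contribution was probed by rerunning MICs with 20 μg mL^−1 PAβN in MgSO4-supplemented (1 mM) Mueller–Hinton II broth, a ≥4-fold decrease being significant.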

[3] = test system: K. pneumoniae ATCC 13883; test: as above; assay type: cell-based, Klebsiella pneumoniae; settings: Klebsiella pneumoniae, ATCC13883
Summary of the method: as §1

[4] = test system: A. baumannii ATCC 19606; test: as above; assay type: cell-based, Acinetobacter baumannii; settings: Acinetobacter baumannii, ATCC19606
Summary of the method: as §1

[5] = test system: S. maltophilia ATCC 12714; test: as above; assay type: cell-based, Stenotrophomonas maltophilia; settings: Stenotrophomonas maltophilia, ATCC12714
Summary of the method: as §1

[6] = test system: S. maltophilia ATCC 13637; test: as above; assay type: cell-based, Stenotrophomonas maltophilia; settings: Stenotrophomonas maltophilia, ATCC13637
Summary of the method: as §1

[7] = test system: B. cepacia ATCC 25416; test: Antibacterial activity: MIC/MBC, disc-diffusion; assay type: cell-based, Burkholderia cepacia; settings: Burkholderia cepacia, ATCC25416
Summary of the method: as §1

[8] = test system: C. guilliermondii IBA 155; test: Antifungal activity: MIC/MFC, disc-diffusion; assay type: cell-based; settings: Meyerozyma guilliermondii, IBA155
Summary of the method: (§2)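 MIC values come from CLSI/EUCAST-based dilution testing, with cidal concentrations (MBC or MFC) assessed by CLSI procedures and zones by disc diffusion. Compounds were prepared in DMSO.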

[9] = test system: C. tropicalis ATCC 750; test: Antifungal activity: MIC/MFC, disc-diffusion; assay type: cell-based; settings: Candida tropicalis, ATCC750
Summary of the method: as §2

[10] = test system: S. cerevisiae ATCC 9763; test: Antifungal activity: MIC/MFC, disc-diffusion; assay type: cell-based, Saccharomyces cerevisiae; settings: Saccharomyces cerevisiae, ATCC9763
Summary of the method: as §2

[11] = S. aureus ATCC 6538P, read-out: MBC (first MBC where Eagle effect)
[12] = S. aureus ATCC 6538P, read-out: MIC
[13] = E. coli ATCC 25922, read-out: MIC
[14] = K. pneumoniae ATCC 13883, read-out: MIC
[15] = A. baumannii ATCC 19606, read-out: MIC
[16] = S. maltophilia ATCC 12714, read-out: MIC
[17] = S. maltophilia ATCC 13637, read-out: MIC
[18] = B. cepacia ATCC 25416, read-out: MIC

| SMILES | diameter of inhibition zone ([1]; S. aureus ATCC 6538P) [mm] | MBC [1, 11] [mg/L] | MIC [1, 12] [mg/L] | MIC [2, 13] [mg/L] | MIC [3, 14] [mg/L] | MIC [4, 15] [mg/L] | MIC [5, 16] [mg/L] | MIC [6, 17] [mg/L] | MIC [7, 18] [mg/L] | MIC ([8]; read-out: MIC) [mg/L] | MIC ([9]; read-out: MIC) [mg/L] | MIC ([10]; read-out: MIC) [mg/L] | -fold reduction of MIC in the presence of PAβN ([2]; E. coli ATCC 25922) | also measured |
| --- | --- | --- | --- | --- | --- | --- | --- | --- | --- | --- | --- | --- | --- | --- |
| CCOP(=O)(OCC)Sc1c(F)cc2c(c1F)[Si](C)(C)OB2O [Compound 24, S-(5,7-Difluoro-3-hydroxy-1,1-dimethyl-1,3-dihydrobenzo[c][1,2,5]oxasilaborol-6-yl) O,O-diethyl phosphorothioate] | 32 |  |  |  |  |  |  |  |  |  |  |  |  | MIC [1]: 6.25 mg/L (≈ 16.4 µM); MBC ([1]; read-out: MBC (first MBC where Eagle effect)): 12.5 mg/L (≈ 32.7 µM); MBC ([1]; read-out: second MBC (Eagle effect)): > 400 mg/L; MIC [2]: > 400 mg/L; MIC [3]: > 400 mg/L; MIC [4]: > 400 mg/L; MIC [5]: > 400 mg/L; MIC [6]: > 400 mg/L; MIC [7]: > 400 mg/L; MIC [8]: > 400 mg/L; MIC [9]: > 400 mg/L; MIC [10]: > 400 mg/L |
| C[Si]1(C)OB(O)c2ccc(SC(=O)c3ccc(C(F)(F)F)cc3)c(F)c21 [Compound 25, S-(7-Fluoro-3-hydroxy-1,1-dimethyl-1,3-dihydrobenzo[c][1,2,5]oxasilaborol-6-yl) 4-(trifluoromethyl)benzothioate] | 11 | 25 (≈ 62.5 µM) | 12.5 (≈ 31.2 µM) | > 50 | > 50 | > 50 | > 50 | > 50 | > 50 | 50 (≈ 125 µM) | > 50 | 25 (≈ 62.5 µM) |  |  |
| C[Si]1(C)OB(O)c2cc(F)c(S(=O)(=O)Cl)c(F)c21 [Compound 26, 5,7-Difluoro-3-hydroxy-1,1-dimethyl-1,3-dihydrobenzo[c][1,2,5]oxasilaborole-6-sulfonyl chloride] | 14 | 400 | 200 | > 400 | > 400 | > 400 | > 400 | > 400 | > 400 | > 400 | > 400 | > 400 |  |  |
| C[Si]1(C)OB(O)c2cc(F)c(S(N)(=O)=O)c(F)c21 [Compound 27, 5,7-Difluoro-3-hydroxy-1,1-dimethyl-1,3-dihydrobenzo[c][1,2,5]oxasilaborole-6-sulfonamide] |  |  | 400 (≈ 1360 µM) | > 400 | > 400 | > 400 | > 400 | > 400 | > 400 | > 400 | > 400 | > 400 | 2 -fold |  |
| C[Si]1(C)OB(O)c2cc(F)c(S(=O)(=O)Nc3ccc(F)cc3)c(F)c21 [Compound 28, 5,7-Difluoro-N-(4-fluorophenyl)-3-hydroxy-1,1-dimethyl-1,3-dihydrobenzo[c][1,2,5]oxasilaborole-6-sulfonamide] | 22 |  | 50 (≈ 129 µM) | > 400 | > 400 | > 400 | > 400 | > 400 | > 400 | > 400 | > 400 | > 400 | 4 -fold |  |

From PMC11110727, “Exploiting thiol-functionalized benzosiloxaboroles for achieving diverse substitution patterns – synthesis, characterization and biological evaluation of promising antibacterial agents” (RSC Medicinal Chemistry, 2024)
